Data taken from patent US12064445B2, “Cytarabine conjugates for cancer therapy” (Biosight Ltd., priority 2015, dated 2024).
Like-named read-outs stand apart in the source and are kept apart here.

Experiments:
[1] = system: A2780 (Human ovarian carcinoma); test: MTT assay, IC50 in tumor cell lines; assay type: cell-based; details: A2780, 72 hr
Method: (§1) The effect of Astarabine® on different cell lines was evaluated. Briefly, various cell lines were obtained from ATCC or ECACC. Hematological cells were grown in RPMI medium containing 10-20% FBS and 1% glutamine. Solid tumor cells were grown in DMEM medium containing 10-20% FBS and 1% glutamine. Cells were seeded into 96-well plates, 50,000 cells/ml, 0.2 ml per well. Test substances were diluted in saline or PBS and added in final concentrations of 0.1 nM to 10 μM, in a volume of 20 μl. The study was conducted in triplicates, PBS was used as control. Plates were incubated for 72 hr at 37° C., 5% CO2. At the end of the exposure period, a MTT assay using the MTT reagent [3-(4,5-dimethylthiazol-2-yl)-2,5-diphenyltetrazolium bromide] was performed. MTT was added to each well at a concentration of 5 mg/ml in a volume of 0.02 ml. Plates were incubated at 37° C. for 3 h. The plates were centrifuged at 3500 rpm for 5 minutes and the supernatant was aspired. The pellets which contained MTT crystals were each dissolved in 0.2 ml DMSO. Absorbance was determined using ELISA reader at a wavelength of 570 nm.

[2] = system: HL-60 (Human promyelocytic leukemia); test: MTT assay, IC50 in tumor cell lines; assay type: cell-based; details: HL-60, 72 hr
Method: as §1

[3] = system: K562 (Human chronic myelogenous leukemia); test: MTT assay, IC50 in tumor cell lines; assay type: cell-based; details: K562, 72 hr
Method: as §1

[4] = system: Kasumi-1 (Human acute myeloblastic leukemia); test: MTT assay, IC50 in tumor cell lines; assay type: cell-based; details: Kasumi-1, 72 hr
Method: as §1

[5] = system: L1210 (Mouse DBA/2 lymphocytic leukemia); test: MTT assay, IC50 in tumor cell lines; assay type: cell-based; details: L1210, 72 hr
Method: as §1

[6] = system: Molt-4 (Human acute lymphoblastic leukemia); test: MTT assay, IC50 in tumor cell lines; assay type: cell-based; details: Molt-4, 72 hr
Method: as §1

[7] = system: NCIH727 (Human lung non small cell carcinoma); test: MTT assay, IC50 in tumor cell lines; assay type: cell-based; details: NCI-H727, NCIH727, 72 hr
Method: as §1

[8] = system: P388.D1 (Mouse lymphoid macrophage); test: MTT assay, IC50 in tumor cell lines; assay type: cell-based; details: P388D1, P388.D1, 72 hr
Method: as §1

[9] = system: SU DHL-1 (Human large cell lymphoma); test: MTT assay, IC50 in tumor cell lines; assay type: cell-based; details: SU DHL-1, 72 hr
Method: as §1

[10] = system: THP-1 (Human monocytic leukemia); test: MTT assay, IC50 in tumor cell lines; assay type: cell-based; details: THP-1, 72 hr
Method: as §1

[11] = Maximal tolerated dose, repeated dose IP (7 days) in mice; assay type: in vivo; details: for MTD at 7 days: TRC, mouse, in vivo
Text: All mice were inspected daily during drug administration and recovery period. Clinical evaluation included mobility observations, food and water consumption. […] Hematology and biochemical blood tests were shown normal at the end of the experiment.

[12] = Maximal tolerated dose, single dose IV in mice; assay type: in vivo
Method: IRC mice were injected once IV with Astarabine® in a dose ranging from 1000 to 8000 mg/kg. The mice were evaluated for 14 days. […] The following parameters: clinical signs, body weight, food consumption and blood analysis, were normal for both male and female mice at this dose, i.e., 8000 mg/kg. […] It is therefore concluded that 8000 mg/kg is the MTD of Astarabine® in mice for a single IV administration.

in vivo = details: IRC, mouse
Method: IRC mice were injected with Astarabine® IV daily for 14 days in a dosage ranging from 400 mg/kg/day to 1200 mg/kg/day. Based on the results of this 14 days intravenous repeated dose study in mice, it was concluded that the IV maximal tolerated dose for Astarabine® is 400 mg/kg/day, administrated for 14 consecutive days. The total administered dose in this group was 5600 mg/kg. All measured parameters such as clinical observations, neurobehavioral observations, motor activity observations, body weight, food consumption, blood analysis and urine analysis, were within the normal range as compared to the non-treated group. Thus, Astarabine® in a concentration of 400 mg/kg/day was considered as the NOAEL (No Adverse Effect Level) in mice. In vivo tolerability/toxicology studies to determine the MTD of a single dose in mice are shown in FIG. 1A and of repeated doses in mice are shown in FIG. 1B.

CCRF-CEM cells = test: Human leukemia hollow fiber model transplanted in nude mice (CCRF-CEM); assay type: in vivo; details: 7 consecutive days
Method: Next, the efficacy of Astarabine® in vivo was studied on a human leukemia (Molt-4 and CCRF-CEM cells) hollow fiber model transplanted in nude mice. Astarabine® was injected at doses of 6.25 mg/mouse/day and 25 mg/mouse/day intraperitoneally (IP), daily, for 7 consecutive days; cytarabine was injected at a dose of 1.5 mg/mouse/day. Leukemia cell growth was measured using the MTT assay as described in Example 1 herein above.

[13] = ICR, mouse, in vivo
Method: In vivo tolerability/toxicology studies were used to determine the MTD of a single dose of Astarabine® in mice (FIG. 1A) or of 14 daily repeated doses of Astarabine® in mice (FIG. 1B). The MTD was evaluated for intravenous (IV) or intraperitoneal (IP) administration.

Structure (SMILES): N[C@@H](CC(=O)Nc1ccn([C@@H]2O[C@H](CO)[C@@H](O)[C@@H]2O)c(=O)n1)C(=O)O [Astarabine®]
- IC50 [1]: 457 nM
- IC50 [2]: 256 to 276 nM
- IC50 [3]: 194 to 516 nM
- IC50 [4]: 7600 nM
- IC50 [5]: 39.4 to 116 nM
- IC50 [6]: 4 to 24 nM
- IC50 [7]: 1300 to 2800 nM
- IC50 [8]: 1900 to 2600 nM
- IC50 [9]: 314 to 335 nM
- IC50 [10]: 7100 to 52000 nM
- Gross necropsy ([11]; IP 7 days, 156 to 781 mg/kg/day): no abnormal findings
- Hematology and biochemical blood tests ([11]; IP 7 days, 156 to 781 mg/kg/day, end of experiment): normal
- MTD at 7 days ([11]; 781 mg/kg/day IP for 7 days, read-out: Accumulative dose at MTD): 5470 mg/kg
- MTD at 7 days ([11]; IP for 7 days, read-out: MTD (maximal tolerated dose)): 781 mg/kg/day
- MTD at 14 days ([12]; both sexes, IRC, mouse, in vivo, single IV administration, evaluated for 14 days): 8000 mg/kg
- Drug dependent death ([12]; single IV dose 8000 mg/kg): no drug dependent death
- IV maximal tolerated dose (in vivo; 14 days): 400 mg/kg/day
- NOAEL at 14 days (in vivo; iv): 400 mg/kg/day
- MTD at 14 days (in vivo; iv, 400 mg/kg/day): 5600 mg/kg
- Inhibition of growth of CCRF-CEM cells (CCRF-CEM cells; 6.25 mg/mouse/day IP): 71.9%
- Inhibition of growth of CCRF-CEM cells (CCRF-CEM cells; 25 mg/mouse/day IP): 72.0%
- Reduction of toxicity in animals compared to the reported toxicity of cytarabine [13]: 10-20 fold
